Measurements as given in patent US20230024584A1, “ANTI-CANCER COMPOSITIONS AND METHODS” (University of Kentucky Research Foundation, priority 2019, published 2023).

Legend:
Type in all cases: cell-based
PC9GR4 and A549 cells = assay: Sphere formation assay, lung cancer cells; settings: 1.25, 2.5 or 5 μM, 10 days
Procedure: With reference to FIGS. 30A and 30B, studies were also conducted to determine the effect of lomitapide treatment on the cancer stem cell-like property of lung cancer cells. Initially, 2500 lung cancer PC9GR4 or A549 cells were seeded into […] 24-well plates; meanwhile, vehicle control (DMSO) or lomitapide (final concentration: 1.25, 2.5 or 5 μM) were added into corresponding wells. After 10-days continuous culture, the final spheres formed were imaged and counted under an inverted phase-contrast microscope. FIG. 30A includes representative sphere images from each treatment groups. FIG. 30B includes the quantitation of sphere numbers (mean±standard deviation, n=3). * p<0.05, compared to vehicle control (negative control) treatment group.

[1] = test system: SUM19, MCF-7, MDA-MB-453 and 4T1luc cells; assay: Suspension culture sphere formation assay, breast cancer cells; settings: 1.25, 2.5 or 5 μM, 10 days
Procedure: With reference to FIGS. 24A and 24B, the effect of lomitapide treatment on cancer stem cell-like property of breast cancer cells was further studied. Initially, 2500 breast cancer SUM19, MCF-7, MDA-MB-453 or 4T1^luc cells were seeded into […] 24-well plates; meanwhile, vehicle control (DMSO) or lomitapide (final concentration: 1.25, 2.5 or 5 μM) were added into corresponding wells. After 10-days continuous culture, the final spheres formed were imaged and counted under an inverted phase-contrast microscope. FIG. 24A includes representative sphere images from each treatment groups. FIG. 24B includes the quantitation of sphere numbers (mean±standard deviation, n=3). * p<0.05, compared to vehicle control (negative control) treatment group.

[2] = test system: MCF-7, LM2 and 4T1luc cells; assay: Apoptosis (7-AAD/APC-annexin V flow cytometry), breast cancer cells; settings: 1.25, 2.5 or 5 μM, 48 h
Procedure: With reference to FIGS. 26A-26C, studies were also conducted to determine the effect of lomitapide treatment on apoptosis of breast cancer cells. Initially, 0.1-0.3 million MCF-7, LM2 or 4T1^luc cells were seeded into 6 cm cell culture dishes and cultured overnight. Vehicle control (DMSO) or lomitapide (final concentration: 1.25, 2.5 or 5 μM) was added then into corresponding dishes. After 48 h incubation, the cells were harvested, stained by 7-AAD/APC-annixin V and analyzed by flow cytometry. The results are presented as mean±standard deviation (n=3). * p<0.05, compared to vehicle control (negative control) treatment group.

[3] = test system: PC9, H1975, PC9GR4, H460 and A549 cells; assay: MTT assay, lung cancer cell lines; settings: 1.25, 2.5 and 5 μM; 24, 48, 72 h
Procedure: FIGS. 27A-27E include the results of studies to determine the effect of lomitapide treatment on lung cancer cell growth of various cell lines as determined by MTT assay. Initially, 1000 PC9, H1975, PC9GR4, H460, or A549 cells were seeded into 96-well plates. After overnight culture, vehicle (DMSO) or lomitapide (final concentration: 1.25, 2.5 and 5 μM) were added into the corresponding wells. After 24 h, 48 h and 72 h incubation, the culture media were aspirated off and 50 μL of 0.5 mg/mL of MTT containing medium was added into each well. After 3h incubation, 200 μl of DMSO were added into each well. The OD value of each well was read under the wavelength of 570 nm. The results are presented as mean±standard deviation (n=6) * p<0.05, compared to vehicle control (negative control) treatment group.

[4] = test system: SUM159, LM2, MCF-7, MB-MDA-453, 4T1 and 4T1luc cells; assay: MTT assay, breast cancer cell lines; settings: 1.25, 2.5 and 5 μM; 24, 48, 72 h
Procedure: With reference to FIGS. 21A-21F, MTT assays were performed to determine the effect of lomitapide treatment on various breast cancer cell lines. Initially, 2500 SUM159 or LM2 cells, 5000 MCF-7 or MB-MDA-453 cells, 1000 4T1 or 4T1^1uc cells were seeded into 96-well plates. After overnight culture, vehicle (DMSO) or lomitapide (final concentration: 1.25, 2.5 and 5 μM) were added into the corresponding wells. After 24 h, 48 h, and 72 h incubation, the culture media were aspirated off and 50 μl of 0.5 mg/mL of MTT containing medium was added into each well. After 3 h incubation, 200 μl of DMSO were added into each well. The OD value of each well was read under the wavelength of 570 nm. The results are presented as mean±standard deviation (n=6) * p<0.05, compared to vehicle control (negative control) treatment group.

[5] = test system: DLD1, PT130 and SW480 cells; assay: Clonogenic assay, colon cancer cell lines; settings: 1.25, 2.5 or 5 μM for 72 h, then 10 days culture
Procedure: Initially, 100 DLD1, PT130 or SW480 cells were seeded into 6-cm cell culture dishes. After overnight culture, vehicle control (DMSO) or lomitapide (final concentration: 1.25, 2.5 or 5 μM) were added into the corresponding dishes. After 72 h culture, the DMSO- or lomitapide-containing media were removed and the fresh culture media were added in followed by additional 10 days culture. The culture media were replaced with fresh media every three days. At the end of cell culture, the final clones in dishes were fixed by 4% paraformaldehyde and stained with crystal violet. FIG. 32A includes representative images from each treatment groups. FIGS. 32B-32D include quantitation of clone numbers (mean±standard deviation, n=3). * p<0.05, compared to vehicle control (negative control) treatment group.

[6] = test system: SUM159, LM2, MCF-7, 4T1, 4T1luc and MDA-MB-453 cells; assay: Clonogenic assay, breast cancer cell lines; settings: 1.25, 2.5 or 5 μM for 72 h, then 10 days culture
Procedure: Clonogenic assays were also performed to determine the effect of lomitapide treatment on various breast cancer cell lines, with data reflected in FIGS. 22A-22G. Initially, 100 SUM159, LM2, MCF-7, 4T1 or 4T1^luc cells, or 1000 MDA-MB-453 cells were seeded into 6-cm cell culture dishes. After overnight culture, vehicle control (DMSO) or lomitapide (final concentration: 1.25, 2.5 or 5 μM) were added into the corresponding dishes. After 72 h culture, the DMSO- or lomitapide-containing media were removed and the fresh culture media were added in followed by additional 10 days culture. The culture media were replaced with fresh media every three days. At the end of cell culture, the final clones in dishes were fixed by 4% paraformaldehyde and stained with crystal violet. FIG. 22A includes representative images from each treatment groups, and FIGS. 22B-22G include the quantitation of clone numbers (mean standard deviation, n=3). * p<0.05, compared to vehicle control (negative control) treatment group.

Substance: lomitapide
- cancer stem cell-like property (sphere numbers) (PC9GR4 and A549 cells): significantly reduces cancer stem cell-like property
- cancer stem cell-like property (sphere numbers) [1]: significantly reduces cancer stem cell-like property
- apoptosis [2]: induces apoptosis
- lung cancer cell growth (MTT) [3]: significantly reduces lung cancer cell growth
- breast cancer cell growth (MTT) [4]: significantly reduces breast cancer cell growth
- colon cancer cell growth (clone numbers) [5]: significantly reduces colon cancer cell growth
- breast cancer cell growth (clone numbers) [6]: significantly reduces breast cancer cell growth
